Assay results: PubChem BioAssay (NCI)
Several values for one entry are separate records, joined by “and”; a condition that tells them apart may be missing. Identical values can stand only once.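 Each compound was tested at five concentrations against cells in 96-well plates for 48 hours. GI50 marks 50% less growth. TGI: total growth inhibition.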

What was measured:
Test in all cases: DTP human tumour cell line panel, 48 h
[1] = system: SK-MEL-5 melanoma
[2] = system: MDA-N
[3] = system: EKVX NSCLC
[4] = system: MDA-MB-231 breast
[5] = system: HT29 colon
[6] = system: HOP-92 NSCLC
[7] = system: IGROV1 ovarian
[8] = system: UO-31 renal
[9] = system: A549 NSCLC
[10] = system: LOX IMVI melanoma
[11] = system: M19-MEL melanoma
[12] = system: DLD-1 colon
[13] = system: DMS 114 small cell lung
[14] = system: LXFL 529 NSCLC
[15] = system: KM20L2 colon
[16] = system: HOP-18 NSCLC
[17] = system: DMS 273 small cell lung

Row | SMILES | TGI [1] | TGI [2] | TGI [3] | TGI [4] | TGI [5] | TGI [6] | TGI [7] | TGI [8] | TGI [9] | TGI [10] | TGI [11] | TGI [12] | TGI [13] | TGI [14] | TGI [15] | TGI [16] | TGI [17] | GI50 [4]
1 | COc1ccc(N2C(=O)C3c4[nH]c5ccc(OC)cc5c4C4CCC(c5ccccc5)CC4C3C2=O)cc1 (stereo not given) | > 100 µM | > 66.7 µM | 52 µM | 25 µM | > 40.5 µM | 35.9 µM | 62.2 µM | > 70.6 µM | 40.3 µM | 56.3 µM |  |  |  |  |  |  |  | 
2 | CCOc1cc2cnc3c4cc(OC)c(OC)cc4ccc3c2cc1OC | > 100 µM |  | > 100 µM |  | > 100 µM | > 100 µM | > 100 µM | > 100 µM | > 100 µM | > 100 µM | > 100 µM | > 100 µM | > 100 µM | > 100 µM | > 100 µM | > 100 µM |  | 
3 | O=C(Cc1ccccc1)N/N=C(/c1nc2ccc([N+](=O)[O-])cc2[nH]c1=O)C(O)c1ccco1 (stereo not given) | > 100 µM |  | > 100 µM |  | > 100 µM | > 100 µM | > 100 µM | > 100 µM | > 100 µM | > 100 µM | > 100 µM | > 100 µM | > 100 µM | > 100 µM |  | > 100 µM |  | 
4 | COC(=O)[C@H]1C2CC[C@@H]3C45C[C@@H](c6ccoc6)O[C@@H]4O[C@@H](O2)C31CCC5C (stereo not given in full) | > 100 µM |  | > 100 µM |  | > 100 µM | > 100 µM | > 100 µM | > 100 µM | > 100 µM | > 100 µM |  | > 100 µM |  | > 100 µM | > 100 µM | > 100 µM | > 100 µM | 
5 | Oc1cc(F)cc2cccnc12 | 13.4 µM | > 100 µM | > 100 µM | 32.9 µM | > 36.7 µM | 3.1 µM | 3.99 µM | > 100 µM | > 50.8 µM | 29.1 µM |  |  |  |  |  |  |  | 
6 | N#CC(C(=S)Nc1ccccc1)=C1Nc2ccccc2N1 | > 10 µM |  | > 10 µM |  |  | > 10 µM |  | > 10 µM | > 10 µM | > 10 µM | > 10 µM | > 10 µM | > 10 µM | > 10 µM | > 10 µM | > 10 µM | > 10 µM | 
7 | N#CC(C#N)=C(N)/C(C#N)=C/c1ccc(O)c(O)c1 | > 100 µM | > 100 µM | > 100 µM | > 100 µM | > 100 µM | > 100 µM | > 100 µM | > 100 µM | > 100 µM | > 100 µM | > 100 µM | > 100 µM | > 100 µM | > 100 µM | > 100 µM |  | > 100 µM | 
8 | CN(C)c1cccc2c(S(=O)(=O)NCCCNCCN)cccc12 | 35.7 µM | 69.6 µM | > 100 µM | > 100 µM | > 100 µM | 80.4 µM | > 100 µM | > 100 µM | > 100 µM | > 100 µM |  |  |  |  |  |  |  | 
9 | CC(=O)OC1OC(C2c3cccc(O)c3C(=O)c3c(O)cc(CO)cc32)C(O)C(O)C1O (stereo not given) | 4.26 µM and 4.09 µM | 13.5 µM and 8.28 µM | 36.8 µM and 26 µM | 7.54 µM and 8.88 µM | > 100 µM | 9.38 µM | 20.8 µM and 21.1 µM | 22.5 µM and 21.3 µM | 21.2 µM and 29.5 µM | 9.75 µM and 9.49 µM |  |  |  |  |  |  |  | 1.51 µM and 3.4 µM
